# Experimental data from ChEMBL document CHEMBL1795321, “Synthesis and in vitro evaluation of ambrisentan analogues as potential endothelin receptor antagonists” (Bioorg Med Chem Lett, 2011).
# The source made the active and inactive calls. The calls are words filed in the database; no cut-off is given here.
# Target: T1, Endothelin receptor type A (Oryctolagus cuniculus) (UniProt A5A8K3)
# T1 sequence (whole entry): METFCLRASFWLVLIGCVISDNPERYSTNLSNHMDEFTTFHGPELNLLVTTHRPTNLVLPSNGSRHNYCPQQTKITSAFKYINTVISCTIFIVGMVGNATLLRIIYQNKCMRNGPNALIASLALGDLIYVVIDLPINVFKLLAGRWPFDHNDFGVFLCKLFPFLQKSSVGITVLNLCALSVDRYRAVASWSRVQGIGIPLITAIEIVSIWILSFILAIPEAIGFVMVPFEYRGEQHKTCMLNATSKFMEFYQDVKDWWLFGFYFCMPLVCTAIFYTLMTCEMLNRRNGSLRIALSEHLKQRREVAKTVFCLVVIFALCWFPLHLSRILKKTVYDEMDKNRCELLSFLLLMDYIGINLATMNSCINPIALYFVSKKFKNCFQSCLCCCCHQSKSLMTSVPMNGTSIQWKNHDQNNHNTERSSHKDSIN
# Assay: Inhibition of endothelin A receptor in New Zealand white rabbit aortic rings assessed as inhibition of endothelin-1-induced vascular contraction at 10^-6 M
row,Structure (SMILES),inhibition
1,CCCCCCCC(=O)OCC(c1ccccc1)(c1ccccc1)C(Oc1nc(C)cc(C)n1)C(=O)O (stereo not drawn),5.61%
2,CCC(=O)OCC(c1ccccc1)(c1ccccc1)C(Oc1nc(C)cc(C)n1)C(=O)O (stereo not drawn),21.7%
3,Cc1cc(C)nc(OC(C(=O)OCc2ccccc2)C(CO)(c2ccccc2)c2ccccc2)n1 (stereo not drawn),inactive
4,COC(c1ccccc1)(c1ccccc1)[C@H](Oc1nc(C)cc(C)n1)C(=O)O,43.2%
5,Cc1cc(C)nc(OC(C(=O)O)C(COC(=O)c2ccccc2)(c2ccccc2)c2ccccc2)n1 (stereo not drawn),8.09%
6,Cc1cc(C)nc(OC(C(=O)O)C(COC(=O)CCc2ccccc2)(c2ccccc2)c2ccccc2)n1 (stereo not drawn),inactive
7,Cc1cc(C)nc(OC2C(=O)OCC2(c2ccccc2)c2ccccc2)n1 (stereo not drawn),14.3%
8,Cc1cc(C)nc(OC(C(=O)O)C(COC(=O)OCC(C)C)(c2ccccc2)c2ccccc2)n1 (stereo not drawn),13.7%
9,COc1ccc(C(=O)OCC(c2ccccc2)(c2ccccc2)C(Oc2nc(C)cc(C)n2)C(=O)O)cc1 (stereo not drawn),inactive
10,Cc1cc(C)nc(OC(C(=O)O)C(COC(=O)C(C)(C)C)(c2ccccc2)c2ccccc2)n1 (stereo not drawn),inactive
11,CCCCCC(=O)OCC(c1ccccc1)(c1ccccc1)C(Oc1nc(C)cc(C)n1)C(=O)O (stereo not drawn),inactive
12,Cc1cc(C)nc(OC(C(=O)O)C(CO)(c2ccccc2)c2ccccc2)n1 (stereo not drawn),23.2%
13,Cc1cc(C)nc(OC(C(=O)O)C(COCc2ccccc2)(c2ccccc2)c2ccccc2)n1 (stereo not drawn),inactive
14,Cc1cc(C)nc(OC(C(=O)O)C(COC(=O)CCC(=O)O)(c2ccccc2)c2ccccc2)n1 (stereo not drawn),inactive
15,CC(=O)OCC(c1ccccc1)(c1ccccc1)C(Oc1nc(C)cc(C)n1)C(=O)O (stereo not drawn),9.64%
16,CCOC(=O)OCC(c1ccccc1)(c1ccccc1)C(Oc1nc(C)cc(C)n1)C(=O)O (stereo not drawn),15.5%
17,COc1ccccc1Oc1c(NS(=O)(=O)c2ccc(C(C)(C)C)cc2)nc(-c2ncccn2)nc1OCCO,22.5%
18,CCC(C)(C)C(=O)OCC(c1ccccc1)(c1ccccc1)C(Oc1nc(C)cc(C)n1)C(=O)O (stereo not drawn),inactive
19,Cc1cc(C)nc(OC(C(=O)O)C(COC(=O)c2ccncc2)(c2ccccc2)c2ccccc2)n1 (stereo not drawn),13.2%

row,Structure (SMILES),inhibition
1,CCOCC(c1ccccc1)(c1ccccc1)C(Oc1nc(C)cc(C)n1)C(=O)O (stereo not drawn),20.6%
2,COC(=O)OCC(c1ccccc1)(c1ccccc1)C(Oc1nc(C)cc(C)n1)C(=O)O (stereo not drawn),3.4%
3,Cc1cc(C)nc(OC(C(=O)O)C(Cc2ccccc2)(c2ccccc2)c2ccccc2)n1 (stereo not drawn),11.8%
4,Cc1cc(C)nc(OC(C(=O)O)C(COC(=O)c2cccnc2)(c2ccccc2)c2ccccc2)n1 (stereo not drawn),7.82%
5,Cc1cc(C)nc(OC(C(=O)O)C(COC(=O)Cc2ccccc2)(c2ccccc2)c2ccccc2)n1 (stereo not drawn),inactive
6,CCCOCC(c1ccccc1)(c1ccccc1)C(Oc1nc(C)cc(C)n1)C(=O)O (stereo not drawn),inactive
7,Cc1cc(C)nc(OC(C(=O)O)C(C#N)(c2ccccc2)c2ccccc2)n1 (racemic),42.2%
8,Cc1cc(C)nc(OC(C(=O)O)C(COC(=O)CCCC(=O)O)(c2ccccc2)c2ccccc2)n1 (stereo not drawn),3.47%
9,CCCC(=O)OCC(c1ccccc1)(c1ccccc1)C(Oc1nc(C)cc(C)n1)C(=O)O (stereo not drawn),1.11%
10,Cc1cccc(C(=O)OCC(c2ccccc2)(c2ccccc2)C(Oc2nc(C)cc(C)n2)C(=O)O)c1 (stereo not drawn),inactive
11,Cc1cc(C)nc(OC(C(=O)O)C(COC(=O)N(C)C)(c2ccccc2)c2ccccc2)n1 (stereo not drawn),inactive
12,COCC(c1ccccc1)(c1ccccc1)C(Oc1nc(C)cc(C)n1)C(=O)O (stereo not drawn),inactive
13,Cc1cc(C)nc(OC(C(=O)O)C(COC(=O)CC(C)C)(c2ccccc2)c2ccccc2)n1 (stereo not drawn),21.8%
14,Cc1cc(C)nc(OC(C(=O)O)C(COC(=O)OC(C)(C)C)(c2ccccc2)c2ccccc2)n1 (stereo not drawn),inactive
15,C=CCOCC(c1ccccc1)(c1ccccc1)C(Oc1nc(C)cc(C)n1)C(=O)O (stereo not drawn),23.4%
16,Cc1cc(C)nc(OC(C(=O)O)C(COC(=O)OC(C)C)(c2ccccc2)c2ccccc2)n1 (stereo not drawn),22%
17,CCCCOCC(c1ccccc1)(c1ccccc1)C(Oc1nc(C)cc(C)n1)C(=O)O (stereo not drawn),15.1%
18,Cc1ccc(S(=O)(=O)OCC(c2ccccc2)(c2ccccc2)C(Oc2nc(C)cc(C)n2)C(=O)O)cc1 (stereo not drawn),inactive
19,CCCCC(=O)OCC(c1ccccc1)(c1ccccc1)C(Oc1nc(C)cc(C)n1)C(=O)O (stereo not drawn),5.88%
